Measured values reported in patent US10456379B2, “Imidazole-based antimicrobial agents” (priority 2014, dated 2019).
Values after ≈ are worked out from the molar mass of the structure shown. Read-outs that look alike come from different tables or passages of the source.

Columns and labels:
[1] = test system: platensimycin-resistant Staphylococcus aureus (from MRSA COL); experiment: Broth microdilution MIC assay, platensimycin-resistant MRSA; format: cell-based; conditions: 24 h, read-out: Antibacterial activity, MRSA strains with additional resistance, P (platensimycin), MIC class
[2] = test system: Mycobacterium smegmatis (mc(2)155); experiment: Broth microdilution MIC assay, Mycobacterium smegmatis
[3] = test system: vancomycin-resistant Enterococcus faecium (ATCC51559); experiment: microbe, parasite or virus in culture; format: cell-based
[4] = test system: moenomycin-resistant Staphylococcus aureus (from MRSA COL); experiment: Broth microdilution MIC assay, moenomycin-resistant MRSA; format: cell-based; conditions: 24 h, read-out: Antibacterial activity, MRSA strains with additional resistance, M (moenomycin), MIC class
[5] = test system: Bacillus subtilis (Marburg strain, ATCC6051); experiment: microbe, parasite or virus in culture; format: cell-based; conditions: ATCC6051, read-out: Antibacterial activity, BS (Bacillus substilis), MIC class
[6] = test system: Streptococcus pneumoniae (Chester, ATCC49619); experiment: Broth microdilution MIC assay, Streptococcus pneumoniae; format: cell-based; conditions: for Antibacterial activity Streptococcus pneumoniae: MIC class score, MIC100, broth microdilution; for MIC: Streptococcus pneumoniae, ATCC49619, read-out: Antibacterial activity, SP (Streptococcus pneumoniae), MIC class
[7] = test system: linezolid-resistant Staphylococcus aureus (from MRSA COL); experiment: Broth microdilution MIC assay, linezolid-resistant MRSA; format: cell-based; conditions: 24 h, read-out: Antibacterial activity, MRSA strains with additional resistance, L (linezolid), MIC class
[8] = test system: daptomycin-resistant Staphylococcus aureus (from MRSA COL); experiment: Broth microdilution MIC assay, daptomycin-resistant MRSA; format: cell-based; conditions: 24 h, read-out: Antibacterial activity, MRSA strains with additional resistance, D (daptomycin), MIC class
[9] = test system: MRSA (COL) resistant to triclosan; experiment: Broth microdilution MIC assay, triclosan-resistant MRSA; conditions: Staphylococcus aureus, read-out: Antibacterial activity, MRSA strains with additional resistance, T (triclosan), MIC class
[10] = test system: Enterococcus faecalis (ATCC29212); experiment: Broth microdilution MIC assay, Enterococcus faecalis; format: cell-based; conditions: read-out: Antibacterial activity, EFs (Enterococcus faecalis), MIC class
[11] = test system: vancomycin-resistant Enterococcus faecalis (ATCC51575); experiment: microbe, parasite or virus in culture; format: cell-based
[12] = test system: vancomycin-resistant Staphylococcus aureus (from MRSA COL); experiment: Broth microdilution MIC assay, vancomycin-resistant MRSA; format: cell-based; conditions: 24 h, read-out: Antibacterial activity, MRSA strains with additional resistance, V (vancomycin), MIC class
[13] = test system: Staphylococcus epidermidis (PCI 1200, ATCC12228); experiment: Broth microdilution MIC assay, Staphylococcus epidermidis; format: cell-based; conditions: read-out: Antibacterial activity, SE (Staphylococcus epidermidis), MIC class
[14] = test system: Staphylococcus aureus MRSA (COL); experiment: Broth microdilution MIC assay, Staphylococcus aureus MRSA (COL); format: cell-based; conditions: MIC class score, MIC100, broth microdilution, COL strain
[15] = test system: Enterococcus faecium (AGR15, ATCCBAA-2127); experiment: Broth microdilution MIC assay, Enterococcus faecium; format: cell-based; conditions: ATCCBAA2127, read-out: Antibacterial activity, EFm (Enterococcus faecium), MIC class
[16] = test system: Staphylococcus aureus MSSA (Newman); experiment: Broth microdilution MIC assay, Staphylococcus aureus MSSA (Newman); format: cell-based; conditions: MIC class score, MIC100, broth microdilution, Newman strain
[17] = test system: Escherichia coli TolC mutant strain ΔtolC; format: cell-based
[18] = ATCC51559, vancomycin-resistant Enterococcus faecium, read-out: Antibacterial activity, VREFm (vancomycin-resistant EFm), MIC class
[19] = Enterococcus faecium, ATCC51559, read-out: Antibacterial activity, VREFm (vancomycin-resistant EFm), MIC class
[20] = ATCC51575, vancomycin-resistant Enterococcus faecalis, read-out: Antibacterial activity, VREFs (vancomycin-resistant EFs), MIC class

SMILES	MIC [1]	Antibacterial activity, MS (Mycobacterium smegmatis), MIC class [2]	MIC [3, 18]	Antibacterial activity Streptococcus pneumoniae [6]	MIC [7]	MIC [8]	MIC [6]	MIC [9]	MIC [10]	MIC [11, 20]	further results
Cc1nc(-c2ccc(-c3ccc(Cl)cc3Cl)o2)[nH]c1-c1ccccc1 [compound 1]	3 to 10 µg/mL (≈ 8.12 to 27.1 µM)	2 (MIC100 of 11-20 μg/ml)	20 to 50 µg/mL (≈ 54.2 to 135 µM)	–	–	–	–	–	–	–	MIC [4]: 3 to 10 µg/mL (≈ 8.12 to 27.1 µM)
Cc1[nH]c(-c2ccc(-c3ccc(Cl)cc3)s2)nc1-c1ccccc1 [compound 6]	–	2 (MIC100 of 11-20 μg/ml)	–	3 (MIC100 of 2-5 μg/ml)	–	–	–	–	–	–	MIC [5]: 11 to 20 µg/mL (≈ 31.4 to 57 µM)
Cc1nc(-c2ccc(-c3ccccc3OC(F)(F)F)o2)[nH]c1-c1ccccc1Cl [compound 19]	–	2 (MIC100 of 11-20 μg/ml)	–	–	3 to 10 µg/mL (≈ 7.16 to 23.9 µM)	3 to 10 µg/mL (≈ 7.16 to 23.9 µM)	< 1 µg/mL	–	–	–	MIC [3, 19]: 20 to 50 µg/mL (≈ 47.8 to 119 µM)
Cc1[nH]c(-c2ccc(-c3ccccc3OC(F)(F)F)o2)nc1-c1ccc(Cl)cc1 [compound 24]	11 to 20 µg/mL (≈ 26.3 to 47.8 µM)	–	–	–	–	1 to 3 µg/mL (≈ 2.39 to 7.16 µM)	–	1 to 3 µg/mL (≈ 2.39 to 7.16 µM)	20 to 50 µg/mL (≈ 47.8 to 119 µM)	20 to 50 µg/mL (≈ 47.8 to 119 µM)	MIC [12]: 1 to 3 µg/mL (≈ 2.39 to 7.16 µM)
Cc1[nH]c(-c2ccc(-c3ccccc3OC(F)(F)F)o2)nc1Cc1ccc(Br)cc1 [compound 30, 4-(4-Bromo-benzyl)-5-methyl-2-[5-(2-trifluoromethoxy-phenyl)-furan-2-yl]-1H-imidazole]	20 to 50 µg/mL (≈ 41.9 to 105 µM)	–	20 to 50 µg/mL (≈ 41.9 to 105 µM)	–	–	1 to 3 µg/mL (≈ 2.1 to 6.29 µM)	–	11 to 20 µg/mL (≈ 23 to 41.9 µM)	–	–	MIC [13]: 11 to 20 µg/mL (≈ 23 to 41.9 µM)
Cc1nc(-c2ccc(-c3ccc(Cl)cc3C(F)(F)F)o2)[nH]c1-c1ccccc1 [compound 32]	–	–	20 to 50 µg/mL (≈ 49.7 to 124 µM)	3 (MIC100 of 2-5 μg/ml)	–	–	2 to 5 µg/mL (≈ 4.97 to 12.4 µM)	–	–	–	MIC [5]: 3 to 10 µg/mL (≈ 7.45 to 24.8 µM)
Cc1nc(-c2ccc(-c3cccc(OC(F)(F)F)c3)o2)[nH]c1-c1ccccc1 [compound 34]	11 to 20 µg/mL (≈ 28.6 to 52 µM)	2 (MIC100 of 11-20 μg/ml)	20 to 50 µg/mL (≈ 52 to 130 µM)	3 (MIC100 of 2-5 μg/ml)	–	–	2 to 5 µg/mL (≈ 5.2 to 13 µM)	3 to 10 µg/mL (≈ 7.81 to 26 µM)	20 to 50 µg/mL (≈ 52 to 130 µM)	–	MIC [4]: 3 to 10 µg/mL (≈ 7.81 to 26 µM)
Cc1nc(-c2ccc(-c3ccc(C(F)(F)F)cc3)o2)[nH]c1-c1ccccc1 [compound 45]	–	–	–	–	1 to 3 µg/mL (≈ 2.71 to 8.14 µM)	1 to 3 µg/mL (≈ 2.71 to 8.14 µM)	< 1 µg/mL	–	–	20 to 50 µg/mL (≈ 54.3 to 136 µM)	MIC [12]: 1 to 3 µg/mL (≈ 2.71 to 8.14 µM)
Cc1[nH]c(-c2ccc(-c3ccc(C(F)(F)F)c(Cl)c3)o2)nc1-c1ccc(F)cc1 [compound 49]	–	–	–	3 (MIC100 of 2-5 μg/ml)	11 to 20 µg/mL (≈ 26.1 to 47.5 µM)	1 to 3 µg/mL (≈ 2.38 to 7.13 µM)	2 to 5 µg/mL (≈ 4.75 to 11.9 µM)	1 to 3 µg/mL (≈ 2.38 to 7.13 µM)	11 to 20 µg/mL (≈ 26.1 to 47.5 µM)	–	MIC ([11]; Enterococcus faecalis, ATCC51575, read-out: Antibacterial activity, VREFs (vancomycin-resistant EFs), MIC class): 20 to 50 µg/mL (≈ 47.5 to 119 µM); Antibacterial activity Staphylococcus aureus (MRSA) [14]: 2 (MIC100 of 11-20 μg/ml); MIC [3, 19]: 20 to 50 µg/mL (≈ 47.5 to 119 µM); MIC [13]: 11 to 20 µg/mL (≈ 26.1 to 47.5 µM); MIC [15]: 20 to 50 µg/mL (≈ 47.5 to 119 µM); Antibacterial activity Staphylococcus aureus (MSSA) [16]: 3 (MIC100 of 3-10 μg/ml)
Cc1[nH]c(-c2ccc(-c3cccc(F)c3C)o2)nc1-c1ccccc1 [compound 60]	–	2 (MIC100 of 11-20 μg/ml)	–	3 (MIC100 of 2-5 μg/ml)	1 to 3 µg/mL (≈ 3.01 to 9.03 µM)	1 to 3 µg/mL (≈ 3.01 to 9.03 µM)	–	–	20 to 50 µg/mL (≈ 60.2 to 150 µM)	–	–
FC(F)(F)Oc1ccccc1-c1ccc(-c2nc(Cl)c(-c3ccccc3)[nH]2)o1 [compound 64]	–	–	–	–	–	1 to 3 µg/mL (≈ 2.47 to 7.41 µM)	< 1 µg/mL	–	–	–	MIC [12]: 1 to 3 µg/mL (≈ 2.47 to 7.41 µM); MIC [4]: 1 to 3 µg/mL (≈ 2.47 to 7.41 µM); Antibacterial activity Staphylococcus aureus (MSSA) [16]: 2 (MIC100 of 11-20 μg/ml)
Cc1ccccc1-c1c[nH]c(-c2ccc(-c3ccccc3OC(F)(F)F)o2)n1 [compound 66]	11 to 20 µg/mL (≈ 28.6 to 52 µM)	2 (MIC100 of 11-20 μg/ml)	20 to 50 µg/mL (≈ 52 to 130 µM)	–	1 to 3 µg/mL (≈ 2.6 to 7.81 µM)	1 to 3 µg/mL (≈ 2.6 to 7.81 µM)	< 1 µg/mL	–	–	20 to 50 µg/mL (≈ 52 to 130 µM)	Antibacterial activity Staphylococcus aureus (MRSA) [14]: 2 (MIC100 of 11-20 μg/ml); Antibacterial activity Staphylococcus aureus (MSSA) [16]: 3 (MIC100 of 3-10 μg/ml)
CN(C)Cc1[nH]c(-c2ccc(-c3ccccc3C(F)(F)F)o2)nc1-c1ccccc1 [compound 70]	–	–	11 to 20 µg/mL (≈ 26.7 to 48.6 µM)	3 (MIC100 of 2-5 μg/ml)	–	3 to 10 µg/mL (≈ 7.29 to 24.3 µM)	2 to 5 µg/mL (≈ 4.86 to 12.2 µM)	–	11 to 20 µg/mL (≈ 26.7 to 48.6 µM)	11 to 20 µg/mL (≈ 26.7 to 48.6 µM)	Antibacterial activity, EC Δ (Escherichia coli ΔtoIC), MIC class [17]: 3 (MIC100 of 3-10 μg/ml); MIC [13]: 11 to 20 µg/mL (≈ 26.7 to 48.6 µM); MIC [15]: 11 to 20 µg/mL (≈ 26.7 to 48.6 µM)
